Test results taken from patent US6369101B1, “Therapeutic method to treat herpes virus infection” (Regents of the University of Minnesota, priority 1999, dated 2002).
Converted amounts (≈) assume the structure as drawn.

Columns and labels:
HSV-2 strain MS = test: CPE inhibition assay, HSV-2 MS in human foreskin fibroblast cells; format: cell-based, herpes simplex virus type 2; settings: for EC50 HSV-2 MS: CPE inhibition in HFF cells; as to Qualitative CPE at 2.0 ml dose HSV-2 MS: key: +++ = Complete cytopathic effect; ++ = Moderate cytopathic effect; + = Minimum cytopathic effect; − = No cytopathic effect
[1] = system: Primary human foreskin fibroblast cells (HFF); test: Cell proliferation assay (cytotoxicity) in HFF cells; format: cell-based; settings: for CC50: Human foreskin fibroblast cells, reduces growth of uninfected cells by 50%
HSV-1 strain F = test: CPE inhibition, HSV-1 strain F in HEp-2 cells; as to Cytopathic Effect (CPE) Inhibition HSV-1 Strain F: key: +++ = Complete cytopathic effect; ++ = Moderate cytopathic effect; + = Minimum cytopathic effect; − = No cytopathic effect; format: cell-based, herpes simplex virus type 1; settings: for Cytopathic Effect (CPE) Inhibition HSV-1 Strain F: conc. per compound (ng/ml)
HSV-1 (strain F) = test: Plaque reduction assay, HSV-1 strain F in HEp-2 cells; format: cell-based, herpes simplex virus type 1
Protocol: HEp-2 cells were grown to monolayer in 24 well tissue culture plates in DMEM containing 10% fetal calf serum at 37° C. for 24-36 hours in the presence of 5% CO2. The monolayer of HEp-2 cells was infected with 0.1 ml of HSV- 1 (strain F) or HSV-2 (strain G) containing 100 pfu. The viruses were allowed to adsorb for 1 hour at 37° C. in the presence of 5% CO2. All wells containing virus infected cells except virus control were overlaid with 0.9 ml of DMEM and 1 ml of test compound. The virus control and cell control received DMEM only. All microtiter plates were incubated at 37° C. in the presence of 5% CO2 and observed twice daily for 72 hours for viral CPE. At the end of the experiment, plates were stained with 0.1% crystal violet and the results were quantified by counting plaque forming units.

[2] = system: Primary Rabbit Kidney cells; test: Cytotoxic effect in primary rabbit kidney cells; format: cell-based; settings: for CC50: Primary Rabbit Kidney cell line
Protocol: Human laryngeal epithelial carcinoma cells (HEp-2, ATCC, Rockville, Md.) were used for testing of antiviral compounds by cytopathic effect (CPE) inhibition and plaque reduction assay. […] HEp-2, African green monkey kidney cells (Vero, ATCC), HFF and primary rabbit kidney cells were used to determine the cytotoxic effect of compounds of formula I. These cells were propagated in Dulbeco's modified Eagle's medium (DMEM) (Sigma, USA) supplemented with 10% inactivated fetal calf serum (FCS), 25 mM HEPES, 0.2% sodium bicarbonate and 1% penicillin/-streptomycin at 37° C. in the presence of 5% CO2.
HFF, Vero and HEp-2 cells were seeded in 24-well tissue culture plates at a concentration of […] in DMEM containing 10% FCS and incubated for 24 hours at 37° C. in the presence of 5% CO2. To the monolayer of these cells 0.5, 1.0, 1.5 and 2.0 ml of solution of antiviral compounds were added in the respective wells in duplicate and the cells were then incubated in a 5% CO2 incubator at 37° C. for 72 hours. The cells were observed daily for any change in morphology. […] At the end of this time, the media-drug solution was removed and the cells washed. One ml of 0.25% trypsin was added to each well and incubated until the cells start to come off of the plate. The cells-media mixture was then pipetted up and down several times to resuspend the cells and 0.2 ml of the cell suspension was added to 9.8 ml of trypan blue and cells were counted using hemocytometer. Each sample was counted three times with three replicate wells per sample.

HSV-1 (E377) = test: Cutaneous HSV-1 infection in rats, topical ointment; format: in vivo, rat; settings: for effect on cutaneous HSV-1 infection (in words): topical ointment (2% betulin, 2% allobetulin, 5% Acyclovir) twice daily for 3 days from 18 hours after infection
Epstein-Barr Virus = test: VCA expression in EBV-infected Daudi cells; settings: Epstein-Barr Virus, Daudi cells, VCA; test compounds in DMSO
From the text: Raji is a Burkitt's lymphoma cell line containing 60 EBV genome/cell, and was the primary cell used for screening antiviral activity against EBV early antigen (EA) expression. […] It spontaneously expresses EBV EA in 0.25-0.5% of the cells. It was used in follow-up studies to confirm activity. These cell lines respond to superinfection by EBV by expressing EA-diffuse component EA (D), EA restricted component EA (R), and viral capsid antigen (VCA). […] The cultures were fed twice weekly and the cell concentration was adjusted to 3×10^5/ml. The cells were kept at 37° C. in humidified atmosphere with 5% CO2.
Cells were infected with the P3HR-1 strain of HBV and the test compound was added after adsorption (45 minutes at 37° C.) and washing of the cell cultures. The cultures were incubated for two days in complete medium to allow viral gene expression. Following the 48 hours of incubation, the numbers of cells of each sample was counted and smears were made. Monoclonal antibodies to the different EA components and VCA were then added to the cells and then incubated and washed. This is followed by a fluorescein conjugated rabbit anti-mouse IgG antibody, and the number of fluorescence cells in the smear were counted. The total number of cells in the cultures positive for EA or VCA were then calculated and compared.

[3] = HFF cells, solution conc. per compound (ng/ml) (Acyclovir 250)

EC50 (Epstein-Barr Virus) [µg/mL]	Compound	EC50 HSV-2 MS (HSV-2 strain MS) [µg/mL]	Qualitative CPE at 2.0 ml dose HSV-2 MS (HSV-2 strain MS; HFF cells, Conc. 12500 ng/ml)	Qualitative CPE at 2.0 ml dose HSV-2 MS (HSV-2 strain MS; [3])	CC50 ([1]; listed as Acyclovir ®) [ng/mL]	CC50 ([1]; listed as Acyclovir®)	Cytopathic Effect (CPE) Inhibition HSV-1 Strain F (HSV-1 strain F)	Plaque Reduction Assay Average pfu/10^5 Cells HSV-1 Strain F (HSV-1 (strain F); Conc. 12500 ng/ml, HSV-1 virus control 5) [pfu/10^5 Cells]	Plaque Reduction Assay Average pfu/10^5 Cells HSV-1 Strain F (HSV-1 (strain F); Conc. 12500 ng/ml, HSV-1 virus control 5, listed as Acyclovir®)	CC50 [2] [µg/mL]	effect on cutaneous HSV-1 infection (in words) (HSV-1 (E377))	anti HSV-2 activity (in words) (HSV-2 strain MS; HFF cells, HSV-2)	cytotoxicity (in words) ([1]; HFF cells)	Qualitative Cytotoxic Effect at 2.0 ml dose ([1]; HFF cells, solution conc. per compound (ng/ml) (Acyclovir 250), 2.0 ml dose)	CC50 [1] [ng/mL]	anti HSV-1 activity (in words) (HSV-1 strain F; qualitative CPE inhibition assay)	Plaque Reduction Assay Average pfu/10^5 Cells HSV-1 Strain F (HSV-1 (strain F); conc. per compound as in column Conc. (ng/ml), HSV-1 virus control 5) [pfu/10^5 Cells]	Plaque Reduction Assay Average pfu/10^5 Cells HSV-1 Strain F (HSV-1 (strain F); conc. per compound as in column Conc. (ng/ml), HSV-1 virus control 5, listed as betulin)	cytotoxicity (in words) ([2]; primary rabbit kidney cells)	number of typical HSV lesions (HSV-1 (E377); HSV-1, by the 4th to 8th days of infection, 2% ointment twice daily for 3 days)
1.4	acycloguanosine [Acyclovir, reference compound]	6	+	+++	>12500	> 12,500 ng/ml	+++	0	no plaque	>0.25	same healing response									
	C=C(C)[C@@H]1CC[C@]2(CO)CC[C@]3(C)[C@H](CC[C@@H]4[C@@]5(C)CC[C@H](O)C(C)(C)[C@@H]5CC[C@]43C)[C@@H]12 [Betulin, lup-20(29)-ene-3β, 28-diol, reference compound]	~0.125 (≈ 0.282 µM)		+			+			>0.25	diminished the signs of the infectious process	significant anti HSV-2 activity	more toxic	−	250 (≈ 0.565 µM)	significant anti HSV-1 activity	0	no plaque	No cytotoxicity	decreased rapidly
